Measurements taken from PMC5814754, “Quantitative, Wide-Spectrum Kinase Profiling in Live Cells for Assessing the Effect of Cellular ATP on Target Engagement” (Cell Chemical Biology, 2018).
pEC50, pIC50: −log10 of the molar value. Read-outs that look alike come from different tables or passages of the source. Blank lines part the entries; values can stand above or below the compound they belong to.

Experiments:
AXL = details: read-out: Crizotinib IC50 Biochemical; ref Cui et al., 2011; cited from earlier work
TRKA [1] = details: read-out: Live Cell IC50 Phospho Elisa; ref Cui et al., 2011; cited from earlier work
TRKB = details: read-out: Live Cell IC50 Phospho Elisa; ref Cui et al., 2011; cited from earlier work
TRKA [2] = details: read-out: Crizotinib IC50 Biochemical; ref Cui et al., 2011; cited from earlier work
INSR = details: read-out: Live Cell IC50 Phospho Elisa; ref Cui et al., 2011; cited from earlier work
178 full-length kinases [3] = molecular target: 178 full-length kinases (Homo sapiens, UniProt Q16539); test: NanoBRET single-dose fractional occupancy profiling of kinase/Nluc library in live HEK293 cells (Table S1); format: binding; design: receptor occupancy: dose or concentration left out as unconfirmed; Occupancy, % Replicate 1 / Occupancy, % Replicate 2: unit of the concentration uncertain; details: MAPK14, Nluc C, probe 6 at 0.1 (unit uncertain)
178 full-length kinases [4] = molecular target: 178 full-length kinases (Homo sapiens, UniProt P57059); test: as above; format: binding; design: receptor occupancy: dose or concentration left out as unconfirmed; Occupancy, % Replicate 1 / Occupancy, % Replicate 2: unit of the concentration uncertain; details: SIK1 (NP_001307572), Nluc orientation N, probe 6 at 0.1 (unit uncertain)
178 full-length kinases [5] = molecular target: 178 full-length kinases (Homo sapiens, UniProt Q9P286); test: as above; format: binding; design: receptor occupancy: dose or concentration left out as unconfirmed; Occupancy, % Replicate 1 / Occupancy, % Replicate 2: unit of the concentration uncertain; details: PAK7, Nluc C, probe 5 at 1 (unit uncertain)
178 full-length kinases [6] = molecular target: 178 full-length kinases (Homo sapiens, UniProt P51817); test: as above; format: binding; design: receptor occupancy: dose or concentration left out as unconfirmed; Occupancy, % Replicate 1 / Occupancy, % Replicate 2: unit of the concentration uncertain; details: PRKX, Nluc C, probe 5 at 1 (unit uncertain)
178 full-length kinases [7] = molecular target: 178 full-length kinases (Homo sapiens, UniProt Q8NG66); test: as above; format: binding; design: receptor occupancy: dose or concentration left out as unconfirmed; Occupancy, % Replicate 1 / Occupancy, % Replicate 2: unit of the concentration uncertain; details: NEK11, Nluc N, probe 5 at 1 (unit uncertain)
178 full-length kinases [8] = molecular target: 178 full-length kinases (Homo sapiens, UniProt Q8IYT8); test: as above; format: binding; design: receptor occupancy: dose or concentration left out as unconfirmed; Occupancy, % Replicate 1 / Occupancy, % Replicate 2: unit of the concentration uncertain; details: ULK2 (NP_001136082), Nluc orientation N, probe 5 at 1 (unit uncertain)
178 full-length kinases [9] = molecular target: 178 full-length kinases (Homo sapiens, UniProt P29597); test: as above; format: binding; design: receptor occupancy: dose or concentration left out as unconfirmed; Occupancy, % Replicate 1 / Occupancy, % Replicate 2: unit of the concentration uncertain; details: TYK2 (NP_003322), Nluc orientation C, probe 5 at 1 (unit uncertain); replicate 1
178 full-length kinases [10] = molecular target: 178 full-length kinases (Homo sapiens, UniProt P10721); test: as above; format: binding; design: receptor occupancy: dose or concentration left out as unconfirmed; Occupancy, % Replicate 1 / Occupancy, % Replicate 2: unit of the concentration uncertain; details: KIT, Nluc C, probe 6 at 0.1 (unit uncertain)
178 full-length kinases [11] = molecular target: 178 full-length kinases (Homo sapiens, UniProt Q12866); test: as above; format: binding; design: receptor occupancy: dose or concentration left out as unconfirmed; Occupancy, % Replicate 1 / Occupancy, % Replicate 2: unit of the concentration uncertain; details: MERTK, Nluc C; read-out: Occupancy, % Replicate 2
178 full-length kinases [12] = molecular target: 178 full-length kinases (Homo sapiens, UniProt P42685); test: as above; format: binding; design: receptor occupancy: dose or concentration left out as unconfirmed; Occupancy, % Replicate 1 / Occupancy, % Replicate 2: unit of the concentration uncertain; details: FRK, Nluc C, probe 6 at 0.5 (unit uncertain)
TIE2 = details: read-out: Crizotinib IC50 Biochemical; ref Cui et al., 2011; cited from earlier work
LCK = details: read-out: Crizotinib IC50 Biochemical; ref Cui et al., 2011; cited from earlier work
ABL = details: read-out: Live Cell IC50 Phospho Elisa; ref Cui et al., 2011; cited from earlier work
[13] = molecular target: full-length kinase/Nluc fusion proteins (Homo sapiens, UniProt P51813); test: Apparent affinity (EC50) of energy transfer probes by titration onto live HEK293 cells expressing kinase/Nluc fusions (Table S1); format: binding; details: BMX, Nluc C; read-out: Probe EC50
[14] = molecular target: full-length kinase/Nluc fusion proteins (Homo sapiens, UniProt P29322); test: as above; format: binding; details: EPHA8, Nluc C; read-out: Probe EC50
[15] = molecular target: full-length kinase/Nluc fusion proteins (Homo sapiens, UniProt P49759); test: as above; format: binding; details: CLK1, Nluc N; read-out: Probe EC50
[16] = molecular target: full-length kinase/Nluc fusion proteins (Homo sapiens, UniProt P31152); test: as above; format: binding; details: MAPK4, Nluc N; read-out: Probe EC50
[17] = molecular target: full-length kinase/Nluc fusion proteins (Homo sapiens, UniProt Q02779); test: as above; format: binding; details: MAP3K10, Nluc N; read-out: Probe EC50
[18] = molecular target: full-length kinase/Nluc fusion proteins (Homo sapiens, UniProt Q9UF33); test: as above; format: binding; details: EPHA6, Nluc C; read-out: Probe EC50
[19] = molecular target: full-length kinase/Nluc fusion proteins (Homo sapiens, UniProt Q16659); test: as above; format: binding; details: MAPK6, Nluc N; read-out: Probe EC50
[20] = molecular target: full-length kinase/Nluc fusion proteins (Homo sapiens, UniProt P50613); test: as above; format: binding; details: CDK7, Nluc C; read-out: Probe EC50
[21] = molecular target: full-length kinase/Nluc fusion proteins (Homo sapiens, UniProt Q06418); test: as above; format: binding; details: TYRO3 (NP_006284), Nluc orientation C; read-out: Probe EC50
[22] = molecular target: full-length kinase/Nluc fusion proteins (Homo sapiens, UniProt O96013); test: as above; format: binding; details: PAK4, Nluc C; read-out: Probe EC50
Chain of full-length kinase/Nluc fusion proteins (Homo sapiens, UniProt O96013) (O96013 whole entry, the tested form may be a part): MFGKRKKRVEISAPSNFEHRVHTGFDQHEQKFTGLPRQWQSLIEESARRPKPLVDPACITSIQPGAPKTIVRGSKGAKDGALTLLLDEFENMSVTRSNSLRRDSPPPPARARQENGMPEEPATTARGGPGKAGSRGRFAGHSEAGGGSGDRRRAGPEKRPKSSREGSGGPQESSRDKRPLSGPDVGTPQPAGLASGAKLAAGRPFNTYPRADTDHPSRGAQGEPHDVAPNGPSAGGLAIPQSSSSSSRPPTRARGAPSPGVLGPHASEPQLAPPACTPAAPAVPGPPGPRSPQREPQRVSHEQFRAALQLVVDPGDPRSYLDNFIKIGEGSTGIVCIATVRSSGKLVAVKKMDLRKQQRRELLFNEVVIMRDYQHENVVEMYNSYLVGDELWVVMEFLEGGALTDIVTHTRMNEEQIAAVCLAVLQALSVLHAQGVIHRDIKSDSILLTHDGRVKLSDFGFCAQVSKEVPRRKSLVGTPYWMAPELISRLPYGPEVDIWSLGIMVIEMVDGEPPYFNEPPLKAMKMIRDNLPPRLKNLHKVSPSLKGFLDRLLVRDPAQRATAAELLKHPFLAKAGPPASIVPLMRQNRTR

Chain of 178 full-length kinases (Homo sapiens, UniProt Q8IYT8) (Q8IYT8 whole entry): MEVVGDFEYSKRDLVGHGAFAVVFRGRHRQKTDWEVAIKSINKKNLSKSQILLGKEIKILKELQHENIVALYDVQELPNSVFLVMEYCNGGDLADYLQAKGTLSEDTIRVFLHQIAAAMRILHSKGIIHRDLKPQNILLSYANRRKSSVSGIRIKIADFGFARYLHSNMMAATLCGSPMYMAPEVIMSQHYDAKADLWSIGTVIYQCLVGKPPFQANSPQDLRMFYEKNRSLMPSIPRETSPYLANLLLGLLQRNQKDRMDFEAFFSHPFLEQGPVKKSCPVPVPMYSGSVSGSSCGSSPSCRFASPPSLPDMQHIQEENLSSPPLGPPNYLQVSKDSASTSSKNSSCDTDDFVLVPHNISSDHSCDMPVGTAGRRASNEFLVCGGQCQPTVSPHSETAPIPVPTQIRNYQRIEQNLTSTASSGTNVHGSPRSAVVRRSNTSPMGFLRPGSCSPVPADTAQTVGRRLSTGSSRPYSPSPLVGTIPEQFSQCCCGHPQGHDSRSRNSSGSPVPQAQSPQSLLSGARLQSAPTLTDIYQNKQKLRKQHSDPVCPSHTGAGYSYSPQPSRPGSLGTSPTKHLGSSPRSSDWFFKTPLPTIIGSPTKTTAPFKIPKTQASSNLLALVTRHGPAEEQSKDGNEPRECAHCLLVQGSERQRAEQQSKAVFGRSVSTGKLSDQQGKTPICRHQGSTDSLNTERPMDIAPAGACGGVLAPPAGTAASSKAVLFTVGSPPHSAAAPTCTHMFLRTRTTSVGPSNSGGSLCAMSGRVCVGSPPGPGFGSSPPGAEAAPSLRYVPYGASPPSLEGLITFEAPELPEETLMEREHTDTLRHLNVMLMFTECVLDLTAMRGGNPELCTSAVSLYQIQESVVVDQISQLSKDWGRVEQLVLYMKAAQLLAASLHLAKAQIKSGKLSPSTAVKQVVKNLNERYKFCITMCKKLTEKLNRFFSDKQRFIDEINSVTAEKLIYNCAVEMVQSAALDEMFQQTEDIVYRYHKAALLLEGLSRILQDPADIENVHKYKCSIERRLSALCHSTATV
Chain of 178 full-length kinases (Homo sapiens, UniProt P57059) (P57059 whole entry): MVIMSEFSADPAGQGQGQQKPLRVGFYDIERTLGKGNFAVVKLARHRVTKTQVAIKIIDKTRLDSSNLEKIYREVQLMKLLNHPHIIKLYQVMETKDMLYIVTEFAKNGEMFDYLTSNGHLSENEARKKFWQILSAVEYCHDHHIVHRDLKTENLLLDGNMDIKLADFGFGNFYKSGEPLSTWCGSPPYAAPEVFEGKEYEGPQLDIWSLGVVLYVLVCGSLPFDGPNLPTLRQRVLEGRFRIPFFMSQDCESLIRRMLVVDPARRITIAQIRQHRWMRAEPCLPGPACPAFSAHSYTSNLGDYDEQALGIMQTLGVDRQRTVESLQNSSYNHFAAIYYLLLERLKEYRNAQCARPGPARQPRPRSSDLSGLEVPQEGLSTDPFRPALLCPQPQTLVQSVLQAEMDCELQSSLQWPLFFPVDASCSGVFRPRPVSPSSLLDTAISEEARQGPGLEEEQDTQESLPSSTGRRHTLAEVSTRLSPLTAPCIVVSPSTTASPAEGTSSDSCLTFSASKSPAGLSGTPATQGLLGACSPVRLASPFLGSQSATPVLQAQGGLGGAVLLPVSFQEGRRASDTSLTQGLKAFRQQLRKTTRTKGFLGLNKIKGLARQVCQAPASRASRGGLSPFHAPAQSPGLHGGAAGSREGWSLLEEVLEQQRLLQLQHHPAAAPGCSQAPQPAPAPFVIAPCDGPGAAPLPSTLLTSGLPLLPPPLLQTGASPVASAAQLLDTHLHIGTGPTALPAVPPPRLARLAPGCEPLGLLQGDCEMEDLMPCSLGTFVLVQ
Chain of 178 full-length kinases (Homo sapiens, UniProt P10721) (P10721 26-976): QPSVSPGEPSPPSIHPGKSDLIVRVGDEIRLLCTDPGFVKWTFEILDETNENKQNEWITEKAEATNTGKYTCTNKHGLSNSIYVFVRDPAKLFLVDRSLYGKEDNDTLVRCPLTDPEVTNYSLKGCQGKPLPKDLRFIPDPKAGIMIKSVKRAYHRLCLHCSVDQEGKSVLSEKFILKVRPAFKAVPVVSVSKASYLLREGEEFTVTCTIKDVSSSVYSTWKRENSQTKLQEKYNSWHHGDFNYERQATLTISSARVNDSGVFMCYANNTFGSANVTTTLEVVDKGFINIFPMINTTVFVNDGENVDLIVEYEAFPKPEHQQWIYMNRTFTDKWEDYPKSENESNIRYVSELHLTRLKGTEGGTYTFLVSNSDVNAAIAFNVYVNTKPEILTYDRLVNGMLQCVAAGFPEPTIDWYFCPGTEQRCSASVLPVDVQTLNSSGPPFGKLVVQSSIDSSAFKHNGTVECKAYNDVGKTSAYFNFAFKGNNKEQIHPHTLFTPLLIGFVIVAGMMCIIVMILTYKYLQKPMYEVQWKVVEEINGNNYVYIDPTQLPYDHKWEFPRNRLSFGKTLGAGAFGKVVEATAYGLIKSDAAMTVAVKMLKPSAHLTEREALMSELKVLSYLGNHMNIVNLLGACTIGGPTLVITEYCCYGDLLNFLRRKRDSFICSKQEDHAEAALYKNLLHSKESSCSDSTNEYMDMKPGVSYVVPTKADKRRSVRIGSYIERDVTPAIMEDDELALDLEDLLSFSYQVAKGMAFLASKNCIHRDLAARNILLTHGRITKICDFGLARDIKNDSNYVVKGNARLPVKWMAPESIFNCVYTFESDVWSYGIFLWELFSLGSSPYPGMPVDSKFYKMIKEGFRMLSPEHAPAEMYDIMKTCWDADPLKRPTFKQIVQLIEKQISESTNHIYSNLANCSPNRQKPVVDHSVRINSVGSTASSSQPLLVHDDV
Chain of 178 full-length kinases (Homo sapiens, UniProt P51817) (P51817 whole entry): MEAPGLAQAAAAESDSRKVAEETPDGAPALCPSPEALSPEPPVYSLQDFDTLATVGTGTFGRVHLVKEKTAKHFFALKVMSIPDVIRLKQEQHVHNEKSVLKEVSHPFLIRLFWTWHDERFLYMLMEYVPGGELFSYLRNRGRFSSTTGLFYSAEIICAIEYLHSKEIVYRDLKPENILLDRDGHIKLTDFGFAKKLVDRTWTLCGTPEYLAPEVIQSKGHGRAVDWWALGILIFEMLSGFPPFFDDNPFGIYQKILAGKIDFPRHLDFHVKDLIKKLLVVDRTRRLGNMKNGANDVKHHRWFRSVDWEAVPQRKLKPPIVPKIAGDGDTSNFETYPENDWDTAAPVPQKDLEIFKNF
Chain of 178 full-length kinases (Homo sapiens, UniProt Q16539) (Q16539 whole entry): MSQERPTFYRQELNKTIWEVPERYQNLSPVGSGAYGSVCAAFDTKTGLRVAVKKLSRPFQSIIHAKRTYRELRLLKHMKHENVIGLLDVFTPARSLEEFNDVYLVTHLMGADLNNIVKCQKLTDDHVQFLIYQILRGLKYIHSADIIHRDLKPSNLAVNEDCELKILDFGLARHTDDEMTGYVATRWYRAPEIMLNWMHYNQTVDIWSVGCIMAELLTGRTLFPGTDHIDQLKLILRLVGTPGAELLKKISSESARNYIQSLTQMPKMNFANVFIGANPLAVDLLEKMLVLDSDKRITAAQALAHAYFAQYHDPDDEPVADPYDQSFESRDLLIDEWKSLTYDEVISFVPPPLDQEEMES
Chain of 178 full-length kinases (Homo sapiens, UniProt Q9P286) (Q9P286 whole entry): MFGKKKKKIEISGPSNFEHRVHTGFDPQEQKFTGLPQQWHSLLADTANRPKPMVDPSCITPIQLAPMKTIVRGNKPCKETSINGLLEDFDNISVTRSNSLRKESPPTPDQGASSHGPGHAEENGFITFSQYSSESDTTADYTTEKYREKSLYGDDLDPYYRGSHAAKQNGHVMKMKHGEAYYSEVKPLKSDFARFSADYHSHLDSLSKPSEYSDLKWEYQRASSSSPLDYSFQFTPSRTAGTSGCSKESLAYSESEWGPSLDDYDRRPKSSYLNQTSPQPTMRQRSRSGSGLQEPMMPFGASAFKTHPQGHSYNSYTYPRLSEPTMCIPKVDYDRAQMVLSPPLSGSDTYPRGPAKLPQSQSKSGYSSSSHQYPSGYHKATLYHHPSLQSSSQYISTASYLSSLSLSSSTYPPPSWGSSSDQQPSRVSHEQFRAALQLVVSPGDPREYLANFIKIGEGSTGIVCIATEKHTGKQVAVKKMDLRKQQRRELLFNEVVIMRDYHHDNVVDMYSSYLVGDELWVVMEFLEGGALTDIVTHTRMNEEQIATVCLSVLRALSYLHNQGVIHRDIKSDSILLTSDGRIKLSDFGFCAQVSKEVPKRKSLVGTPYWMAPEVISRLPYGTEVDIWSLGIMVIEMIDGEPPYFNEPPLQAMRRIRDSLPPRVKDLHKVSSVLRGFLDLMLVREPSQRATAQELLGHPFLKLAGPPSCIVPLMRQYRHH

SMILES: C[C@@H](Oc1cc(-c2cnn(C3CCNCC3)c2)cnc1N)c1c(Cl)ccc(F)c1Cl [Crizotinib]
pIC50 (AXL): […] | pIC50 (TRKA [1]): 6.24 | pIC50 (TRKB): […] | pIC50 (TRKA [2]): […] | pIC50 (INSR): […] | Occupancy, % Replicate 1 (178 full-length kinases [3]): No Binding | Occupancy, % Replicate 2 (178 full-length kinases [3]): No Binding | Occupancy, % Replicate 1 (178 full-length kinases [4]; replicate 1): No Binding | Occupancy, % Replicate 2 (178 full-length kinases [4]; replicate 2): No Binding | Occupancy, % Replicate 1 (178 full-length kinases [5]): No Binding | Occupancy, % Replicate 2 (178 full-length kinases [5]): No Binding | Occupancy, % Replicate 1 (178 full-length kinases [6]): No Binding | Occupancy, % Replicate 2 (178 full-length kinases [6]): No Binding | Occupancy, % Replicate 2 (178 full-length kinases [7]): No Binding | Occupancy, % Replicate 1 (178 full-length kinases [8]; replicate 1): No Binding | Occupancy, % Replicate 2 (178 full-length kinases [8]; replicate 2): No Binding | Occupancy, % Replicate 1 (178 full-length kinases [9]): No Binding | Occupancy, % Replicate 1 (178 full-length kinases [10]): No Binding | Occupancy, % Replicate 2 (178 full-length kinases [10]): No Binding | receptor occupancy (178 full-length kinases [11]): 81% | Occupancy, % Replicate 2 (178 full-length kinases [12]): No Binding | pIC50 (TIE2): […] | pIC50 (LCK): […] | pIC50 (ABL): […]

pEC50 [13]: 6.52 | pEC50 [14]: 8.00
SMILES: Cc1nc(Nc2ncc(C(=O)Nc3c(C)cccc3Cl)s2)cc(N2CCN(CCOCCNC(=O)CCc3ccc4n3[B-](F)(F)[N+]3=C(c5ccc[nH]5)C=CC3=C4)CC2)n1 [Energy Transfer Probe 6, 2-((6-(4-(2-(2-aminoethoxy)ethyl)piperazin-1-yl)-2-methylpyrimidin-4-yl)amino)-N-(2-chloro-6-methylphenyl)thiazole-5-carboxamide-NanoBRET 590]

pEC50 [15]: < 6.00 | pEC50 [16]: < 6.00 | pEC50 [17]: < 6.00 | pEC50 [18]: < 6.00 | pEC50 [19]: 6.40 | pEC50 [20]: 6.52 | pEC50 [21]: < 6.00 | pEC50 [22]: < 6.00
SMILES: CNC(=O)c1ccccc1Nc1nc(Nc2ccc(N3CCN(C(=O)CCOCCOCCOCCOCCNC(=O)CCc4ccc5n4[B-](F)(F)[N+]4=C(c6ccc[nH]6)C=CC4=C5)CC3)cc2)ncc1Cl [Energy Transfer Probe 5, 2-((2-((4-(4-(1-amino-3,6,9,12-tetraoxapentadecan-15-oyl)piperazin-1-yl)phenyl)amino)-5-chloropyrimidin-4-yl)amino)-N-methylbenzamide-NanoBRET 590]
